# In US20230085307A1, “PYRIDAZINONE COMPOUND AND HERBICIDE” (NISSAN CHEMICAL CORPORATION, priority 2019, published 2023):
# Tested on: chickweed
# Assay: Test Example 5: herbicidal effect by foliage application, plastic box (Table 20, symbol P)
# Format: in vivo, common chickweed (Stellaria media)
# Details: foliage application, AAH 320 g/ha, evaluated three weeks after application
# In short: (§1)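 Post-emergence foliar test in sterilized diluvial soil. Compound applied as water-diluted emulsion at a predetermined rate to 14-day-old plants; evaluation at three weeks.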
row,SMILES,"P: chickweed, herbicidal effect (criteria 0-5)"
1,CC(=O)c1ccc(-c2sc3ccc(F)cc3c2-c2c(O)c(C)nn(C)c2=O)cc1 [2-339],5 (Herbicidal rate of 90% or more (almost completely withered))
2,Cc1nn(C)c(=O)c(-c2c(-c3ccc([N+](=O)[O-])cc3)sc3ccc(F)cc23)c1O [2-341],5 (Herbicidal rate of 90% or more (almost completely withered))

# Tested on: wild oat
# Assay: Test Example 4: herbicidal effect by soil treatment (Table 19, symbol I)
# Format: in vivo, wild oat (Avena fatua)
# Details: amount of applied herbicide 320 g/ha
# In short: (§2)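 Scoring uses the grading scale of an earlier test, three weeks post-application. Treatment consists of spraying a diluted emulsion formulation across the surface of sterilized diluvial soil in which seeds are buried near 1.5 cm deep; boxes are kept in a greenhouse between 25° C. and 30° C.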
row,SMILES,herbicidal effect on I: wild oat
1,CC(=O)c1ccc(-c2sc3ccc(F)cc3c2-c2c(O)c(C)nn(C)c2=O)cc1 [2-339],0 (Herbicidal rate of 5% or less (almost no effect))
2,Cc1nn(C)c(=O)c(-c2c(-c3ccc([N+](=O)[O-])cc3)sc3ccc(F)cc23)c1O [2-341],3 (Herbicidal rate of 40% or more and less than 70%)

# Tested on: persian speedwell
# Assay: Test Example 4: herbicidal effect by soil treatment (Table 19, symbol R)
# Format: in vivo, Persian speedwell (Veronica persica)
# Details: amount of applied herbicide 320 g/ha
# In short: as §2
row,SMILES,herbicidal effect on R: persian speedwell
1,CC(=O)c1ccc(-c2sc3ccc(F)cc3c2-c2c(O)c(C)nn(C)c2=O)cc1 [2-339],4 (Herbicidal rate of 70% or more and less than 90%)
2,Cc1nn(C)c(=O)c(-c2c(-c3ccc([N+](=O)[O-])cc3)sc3ccc(F)cc23)c1O [2-341],5 (Herbicidal rate of 90% or more (almost completely withered))

# Tested on: southern crabgrass
# Assay: Test Example 4: herbicidal effect by soil treatment (Table 19, symbol F)
# Format: in vivo, southern crabgrass (Digitaria ciliaris)
# Details: amount of applied herbicide 320 g/ha
# In short: as §2
row,SMILES,herbicidal effect on F: southern crabgrass
1,CC(=O)c1ccc(-c2sc3ccc(F)cc3c2-c2c(O)c(C)nn(C)c2=O)cc1 [2-339],0 (Herbicidal rate of 5% or less (almost no effect))
2,Cc1nn(C)c(=O)c(-c2c(-c3ccc([N+](=O)[O-])cc3)sc3ccc(F)cc23)c1O [2-341],5 (Herbicidal rate of 90% or more (almost completely withered))

# Tested on: chickweed
# Assay: Test Example 4: herbicidal effect by soil treatment (Table 19, symbol P)
# Format: in vivo, common chickweed (Stellaria media)
# Details: amount of applied herbicide 320 g/ha
# In short: as §2
row,SMILES,herbicidal effect on P: chickweed
1,CC(=O)c1ccc(-c2sc3ccc(F)cc3c2-c2c(O)c(C)nn(C)c2=O)cc1 [2-339],3 (Herbicidal rate of 40% or more and less than 70%)
2,Cc1nn(C)c(=O)c(-c2c(-c3ccc([N+](=O)[O-])cc3)sc3ccc(F)cc23)c1O [2-341],4 (Herbicidal rate of 70% or more and less than 90%)

# Tested on: green foxtail
# Assay: Test Example 4: herbicidal effect by soil treatment (Table 19, symbol G)
# Format: in vivo, green foxtail (Setaria viridis)
# Details: amount of applied herbicide 320 g/ha
# In short: as §2
row,SMILES,herbicidal effect on G: green foxtail
1,CC(=O)c1ccc(-c2sc3ccc(F)cc3c2-c2c(O)c(C)nn(C)c2=O)cc1 [2-339],0 (Herbicidal rate of 5% or less (almost no effect))
2,Cc1nn(C)c(=O)c(-c2c(-c3ccc([N+](=O)[O-])cc3)sc3ccc(F)cc23)c1O [2-341],4 (Herbicidal rate of 70% or more and less than 90%)

# Tested on: blackgrass
# Assay: Test Example 4: herbicidal effect by soil treatment (Table 19, symbol J)
# Format: in vivo, blackgrass (Alopecurus myosuroides)
# Details: amount of applied herbicide 320 g/ha
# In short: as §2
row,SMILES,herbicidal effect on J: blackgrass
1,CC(=O)c1ccc(-c2sc3ccc(F)cc3c2-c2c(O)c(C)nn(C)c2=O)cc1 [2-339],2 (Herbicidal rate of 20% or more and less than 40%)
2,Cc1nn(C)c(=O)c(-c2c(-c3ccc([N+](=O)[O-])cc3)sc3ccc(F)cc23)c1O [2-341],0 (Herbicidal rate of 5% or less (almost no effect))

# Tested on: velvetleaf
# Assay: Test Example 4: herbicidal effect by soil treatment (Table 19, symbol M)
# Format: in vivo, velvetleaf (Abutilon theophrasti)
# Details: amount of applied herbicide 320 g/ha
# In short: as §2
row,SMILES,herbicidal effect on M: velvetleaf
1,CC(=O)c1ccc(-c2sc3ccc(F)cc3c2-c2c(O)c(C)nn(C)c2=O)cc1 [2-339],5 (Herbicidal rate of 90% or more (almost completely withered))
2,Cc1nn(C)c(=O)c(-c2c(-c3ccc([N+](=O)[O-])cc3)sc3ccc(F)cc23)c1O [2-341],3 (Herbicidal rate of 40% or more and less than 70%)

# Tested on: velvetleaf
# Assay: Test Example 5: herbicidal effect by foliage application, plastic box (Table 20, symbol M)
# Format: in vivo, velvetleaf (Abutilon theophrasti)
# Details: foliage application, AAH 320 g/ha, evaluated three weeks after application
# In short: as §1
row,SMILES,"M: velvetleaf, herbicidal effect (criteria 0-5)"
1,CC(=O)c1ccc(-c2sc3ccc(F)cc3c2-c2c(O)c(C)nn(C)c2=O)cc1 [2-339],5 (Herbicidal rate of 90% or more (almost completely withered))
2,Cc1nn(C)c(=O)c(-c2c(-c3ccc([N+](=O)[O-])cc3)sc3ccc(F)cc23)c1O [2-341],5 (Herbicidal rate of 90% or more (almost completely withered))

# Tested on: oval-leafed pondweed
# Assay: Test Example 1: herbicidal activity, application before weed generation under submerged conditions (Table 16, symbol C)
# Format: in vivo, oval-leafed pondweed (Monochoria vaginalis)
# Details: 320 g/ha applied herbicide
# In short: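 Alluvial soil was flooded to 4 cm depth, weed seeds were sown mixed and 2.5-leaf rice seedlings were transplanted. On sowing day, the compound's emulsion, diluted in water to a set dose, was applied to the water surface. Plants grew at 25–30 °C and were scored 0–5 after three weeks.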
row,SMILES,Herbicidal effect on C: oval-leafed pondweed (grade 0-5)
1,CC(=O)c1ccc(-c2sc3ccc(F)cc3c2-c2c(O)c(C)nn(C)c2=O)cc1 [2-339],5 (Herbicidal rate of 90% or more (almost completely withered))
2,Cc1nn(C)c(=O)c(-c2c(-c3ccc([N+](=O)[O-])cc3)sc3ccc(F)cc23)c1O [2-341],5 (Herbicidal rate of 90% or more (almost completely withered))

# Tested on: barnyard grass
# Assay: Test Example 4: herbicidal effect by soil treatment (Table 19, symbol H)
# Format: in vivo, barnyard grass (Echinochloa crus-galli)
# Details: amount of applied herbicide 320 g/ha
# In short: as §2
row,SMILES,herbicidal effect on H: barnyard grass
1,CC(=O)c1ccc(-c2sc3ccc(F)cc3c2-c2c(O)c(C)nn(C)c2=O)cc1 [2-339],0 (Herbicidal rate of 5% or less (almost no effect))
2,Cc1nn(C)c(=O)c(-c2c(-c3ccc([N+](=O)[O-])cc3)sc3ccc(F)cc23)c1O [2-341],3 (Herbicidal rate of 40% or more and less than 70%)

# Tested on: Japanese bulrush
# Assay: Test Example 2: herbicidal activity, application during weed generation under submerged conditions (Table 17, symbol B)
# Format: in vivo, Japanese bulrush (Schoenoplectus juncoides)
# Details: AAH 320 g/ha; application during weed generation, submerged conditions
# In short: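 Effect on each weed is rated three weeks post-treatment, using the same scoring criteria as the preceding test. Plants grow from mixed-sown seed in flooded alluvial soil (4 cm water) at 25° C. to 30° C., and are treated at one to two leaves with diluted emulsion dropped onto the water.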
row,SMILES,"herbicidal effect rating, B: Japanese bulrush"
1,CC(=O)c1ccc(-c2sc3ccc(F)cc3c2-c2c(O)c(C)nn(C)c2=O)cc1 [2-339],3 (Herbicidal rate of 40% or more and less than 70%)
2,Cc1nn(C)c(=O)c(-c2c(-c3ccc([N+](=O)[O-])cc3)sc3ccc(F)cc23)c1O [2-341],3 (Herbicidal rate of 40% or more and less than 70%)

# Tested on: windgrass
# Assay: Test Example 5: herbicidal effect by foliage application, plastic box (Table 20, symbol L)
# Format: in vivo, windgrass (Apera spica-venti)
# Details: foliage application, AAH 320 g/ha, evaluated three weeks after application
# In short: as §1
row,SMILES,"L: windgrass, herbicidal effect (criteria 0-5)"
1,CC(=O)c1ccc(-c2sc3ccc(F)cc3c2-c2c(O)c(C)nn(C)c2=O)cc1 [2-339],5 (Herbicidal rate of 90% or more (almost completely withered))
2,Cc1nn(C)c(=O)c(-c2c(-c3ccc([N+](=O)[O-])cc3)sc3ccc(F)cc23)c1O [2-341],4 (Herbicidal rate of 70% or more and less than 90%)

# Tested on: lambsquarters
# Assay: Test Example 5: herbicidal effect by foliage application, plastic box (Table 20, symbol O)
# Format: in vivo, lambsquarters (Chenopodium album)
# Details: foliage application, AAH 320 g/ha, evaluated three weeks after application
# In short: as §1
row,SMILES,"O: lambsquarters, herbicidal effect (criteria 0-5)"
1,CC(=O)c1ccc(-c2sc3ccc(F)cc3c2-c2c(O)c(C)nn(C)c2=O)cc1 [2-339],4 (Herbicidal rate of 70% or more and less than 90%)
2,Cc1nn(C)c(=O)c(-c2c(-c3ccc([N+](=O)[O-])cc3)sc3ccc(F)cc23)c1O [2-341],5 (Herbicidal rate of 90% or more (almost completely withered))

# Tested on: lambsquarters
# Assay: Test Example 4: herbicidal effect by soil treatment (Table 19, symbol O)
# Format: in vivo, lambsquarters (Chenopodium album)
# Details: amount of applied herbicide 320 g/ha
# In short: as §2
row,SMILES,herbicidal effect on O: lambsquarters
1,CC(=O)c1ccc(-c2sc3ccc(F)cc3c2-c2c(O)c(C)nn(C)c2=O)cc1 [2-339],4 (Herbicidal rate of 70% or more and less than 90%)
2,Cc1nn(C)c(=O)c(-c2c(-c3ccc([N+](=O)[O-])cc3)sc3ccc(F)cc23)c1O [2-341],4 (Herbicidal rate of 70% or more and less than 90%)

# Tested on: redroot pigweed
# Assay: Test Example 5: herbicidal effect by foliage application, plastic box (Table 20, symbol N)
# Format: in vivo, redroot pigweed (Amaranthus retroflexus)
# Details: foliage application, AAH 320 g/ha, evaluated three weeks after application
# In short: as §1
row,SMILES,"N: redroot pigweed, herbicidal effect (criteria 0-5)"
1,CC(=O)c1ccc(-c2sc3ccc(F)cc3c2-c2c(O)c(C)nn(C)c2=O)cc1 [2-339],5 (Herbicidal rate of 90% or more (almost completely withered))
2,Cc1nn(C)c(=O)c(-c2c(-c3ccc([N+](=O)[O-])cc3)sc3ccc(F)cc23)c1O [2-341],5 (Herbicidal rate of 90% or more (almost completely withered))

# Tested on: Italian ryegrass
# Assay: Test Example 5: herbicidal effect by foliage application, plastic box (Table 20, symbol K)
# Format: in vivo, Italian ryegrass (Lolium multiflorum)
# Details: foliage application, AAH 320 g/ha, evaluated three weeks after application
# In short: as §1
row,SMILES,"K: Italian ryegrass, herbicidal effect (criteria 0-5)"
1,CC(=O)c1ccc(-c2sc3ccc(F)cc3c2-c2c(O)c(C)nn(C)c2=O)cc1 [2-339],5 (Herbicidal rate of 90% or more (almost completely withered))
2,Cc1nn(C)c(=O)c(-c2c(-c3ccc([N+](=O)[O-])cc3)sc3ccc(F)cc23)c1O [2-341],5 (Herbicidal rate of 90% or more (almost completely withered))
